From patent US6511662B1, “Treatment of cytomegalovirus using aminopeptidase N” (priority 1993, dated 2003)
Like-named read-outs stand apart in the source and are kept apart here.

Tests used:
[1] = test system: Semliki Forest Virus (SFV); assay: Semliki Forest Virus infection of HL734 cells, immunocytochemistry; type: cell-based; settings: concentrations as in footnote d
Source text: (§1) FIG. 2. Ability to inhibit infection by compounds that interact with human aminopeptidase N. Panel a: HL734 cells were infected with CMV strain RC256 in the presence of serial dilutions of either U71 (▪) or control mouse ascites ([]). Infection was quantitatively determined by spectrophotometric measurement of the cleavage of p-nitrophenyl-β-D-galactopyranoside by β-gal. Panel b: HL734 were infected with CMV strain AD169 (▪) or Semliki Forest Virus (SFV) ([]) in the presence of increasing concentration of bestatin. Infection was quantitatively determined by immunocytochemistry using an antibody to the mIE protein of CMV or immune serum to SFV and enumeration of infected calls. Panel c: the binding of ^35S-HCMV to MRC-5 cells in the presence of mouse IgG (X) or antibody to APN (∘). Panel d: the aminopeptidase N activity on the surface of HL734 (▪), NIH-3T3 (∘), hAPN-3T3 ([]), or hAPNmut-3T3 (Δ) cells expressed as optical density of reaction product p-nitroanilide.
Method. Infection of HL734 with CMV RC256 was performed as described in FIG. 1 in the presence of serial dilutions of either UT71 or a control mouse ascites. Cells were washed, fixed with glutaraldhyde and assayed for β-gal expression by incubation with p-nitrophenyl-β-D-galactopyranoside (1 mg/ml) and the production of p-nitrophenol was measured spectrophotometrically at 410 nm. To measure the effect of aminopeptidase inhibitors on viral infection, HL734 were preincubated with increasing concentrations of bestatin for 1 hour at 37° C., infected with CMV strain AD169 at an MOI=1-10 or SFV at an MOI=30 for 1 hour at 37° C., washed, and incubated in fresh media for six hours at 37° C. After fixation in ice cold acetone/methanol (1/1), CMV nuclear antigens were detected with a mouse monoclonal to the 72K CMV mIE protein (NEW/Dupont, Inc.) followed by a phycoerythrine-labelled F(ab′)2 fragment of rabbit-anti mouse IgG Dakopatts, Inc). […] Binding of HCMV to MRC-5 cells was carried out by incubating increasing concentration of ^35S-HCMV with MRC-5 cells for 2 hours at 4° C. […] Cells were washed five times with hepes-buffered saline, solubilized with 0.5 M NaOH, and cell-associated ^35S-labelled virions was measured quantitatively by liquid scintillation counting. Aminopeptidase activity on intact cells was measured by plating 1-5×10^4 cells in 96-well plates, incubating overnight in fresh media, and the washed and incubated with alanine-p-nitroanilide (6 mM) at 37° C. At various times, the free p-nitroanilide released was measured spectrophoto-metrically at 410 nm. The aminopeptidase activity was normalized to cell number measured by BCA protein assay (Pierce). All measurements were determined in triplicate.

CMV strain AD169 = assay: CMV AD169 infection of HL734 cells in the presence of aminopeptidase inhibitors, mIE immunocytochemistry; type: cell-based, human cytomegalovirus
Source text: as §1, with “Ability to inhibit infection by compounds that interact with human aminopeptidase N. Panel a: HL734 cells were infected with CMV strain RC256 in the presence of serial dilutions of either U71 (▪) or control mouse ascites ([]).” left out
(§2) Method. Infection of HL734 with CMV RC256 was performed as described in FIG. 1 in the presence of serial dilutions of either UT71 or a control mouse ascites. Cells were washed, fixed with glutaraldhyde and assayed for β-gal expression by incubation with p-nitrophenyl-β-D-galactopyranoside (1 mg/ml) and the production of p-nitrophenol was measured spectrophotometrically at 410 nm. To measure the effect of aminopeptidase inhibitors on viral infection, HL734 were preincubated with increasing concentrations of bestatin for 1 hour at 37° C., infected with CMV strain AD169 at an MOI=1-10 or SFV at an MOI=30 for 1 hour at 37° C., washed, and incubated in fresh media for six hours at 37° C. After fixation in ice cold acetone/methanol (1/1), CMV nuclear antigens were detected with a mouse monoclonal to the 72K CMV mIE protein (NEW/Dupont, Inc.) followed by a phycoerythrine-labelled F(ab′)2 fragment of rabbit-anti mouse IgG Dakopatts, Inc). […] Binding of HCMV to MRC-5 cells was carried out by incubating increasing concentration of ^35S-HCMV with MRC-5 cells for 2 hours at 4° C. Incubation was carried out in the presence of mouse IgG (Sigma, Inc.) or anti-leuM7 (Becton Dickinson, Inc.) at a concentration of 16 μg/ml. Cells were washed five times with hepes-buffered saline, solubilized with 0.5 M NaOH, and cell-associated ^35S-labelled virions was measured quantitatively by liquid scintillation counting. Aminopeptidase activity on intact cells was measured by plating 1-5×10^4 cells in 96-well plates, incubating overnight in fresh media, and the washed and incubated with alanine-p-nitroanilide (6 mM) at 37° C. At various times, the free p-nitroanilide released was measured spectrophoto-metrically at 410 nm. The aminopeptidase activity was normalized to cell number measured by BCA protein assay (Pierce). All measurements were determined in triplicate.
(§3) To investigate whether the enzymatic activity of APN is necessary for CMV infection, four different aminopeptidase inhibitors, actinonin, bestatin, 2,2′-dipyridyl and 1,10-phenanthroline, were evaluated for their effect on enzymatic activity and CMV infection bestatin and actinonin are competitive inhibitors of arinoneptidases, ard 1,10-phenanthroline and 2,2′-dipyridyl inhibit aminopeptidase activity by chelating zinc required for enzyme function.

human aminopeptidase N = biological target: T1, human aminopeptidase N (Homo sapiens, UniProt P15144); assay: Aminopeptidase activity on intact cells with substrate alanine-p-nitroanilide; type: cell-based; settings: concentrations as in footnote d
T1 construct: endogenous in cells
T1 sequence (P15144 whole entry): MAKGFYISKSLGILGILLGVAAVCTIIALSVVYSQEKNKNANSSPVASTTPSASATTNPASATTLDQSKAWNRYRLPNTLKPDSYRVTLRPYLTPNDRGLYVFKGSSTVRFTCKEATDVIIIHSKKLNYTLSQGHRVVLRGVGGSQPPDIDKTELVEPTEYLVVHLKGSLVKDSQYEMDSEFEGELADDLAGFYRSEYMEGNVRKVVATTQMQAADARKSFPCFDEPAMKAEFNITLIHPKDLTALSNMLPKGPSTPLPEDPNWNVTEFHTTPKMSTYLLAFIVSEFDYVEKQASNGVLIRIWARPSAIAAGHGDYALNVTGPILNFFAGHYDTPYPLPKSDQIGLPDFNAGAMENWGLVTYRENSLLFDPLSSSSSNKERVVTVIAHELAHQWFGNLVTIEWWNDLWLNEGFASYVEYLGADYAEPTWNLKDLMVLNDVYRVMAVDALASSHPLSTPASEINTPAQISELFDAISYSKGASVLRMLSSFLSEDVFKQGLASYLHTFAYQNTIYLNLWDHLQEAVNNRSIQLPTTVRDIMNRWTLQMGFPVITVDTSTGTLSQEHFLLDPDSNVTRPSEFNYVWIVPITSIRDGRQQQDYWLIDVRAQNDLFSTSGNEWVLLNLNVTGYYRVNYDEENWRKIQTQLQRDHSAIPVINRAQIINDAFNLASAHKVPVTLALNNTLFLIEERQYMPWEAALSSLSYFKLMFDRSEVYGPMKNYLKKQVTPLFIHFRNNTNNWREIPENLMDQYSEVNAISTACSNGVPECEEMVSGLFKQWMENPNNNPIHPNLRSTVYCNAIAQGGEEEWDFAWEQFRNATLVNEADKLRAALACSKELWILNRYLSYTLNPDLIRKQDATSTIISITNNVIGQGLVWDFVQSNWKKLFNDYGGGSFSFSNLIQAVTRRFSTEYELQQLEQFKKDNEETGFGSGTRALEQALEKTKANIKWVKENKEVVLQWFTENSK
Experimental: as §2
as §3, with “function. […] Toxicity of these substances, measured by trypan blue uptake in cells treated with the inhibitors, was less than 10% in the highest concentrations used (data not shown).” for “function.”

[2] = Human betaherpesvirus 5, AD169, read-out: 50% inhibitory dose for CMV infection
[3] = chemical inhibitors at maximum non-toxic concentration: actinonin 5.45 mM, bestatin 4.35 mM, 1,10-phenanthroline 0.45 mM, 2,2′-dipyridyl 3.74 mM

Row | Structure (SMILES) | Inhibition of SFV Infection [1] | IC50 (CMV strain AD169; [2]) [µM] | Inhibition of CMV Infection (CMV strain AD169; [3]) | Inhibition of aminopeptidase activity (human aminopeptidase N) | IC50 (CMV strain AD169; HL734 cells, CMV AD169, read-out: 50% inhibitory dose for CMV infection) [µM] | inhibition at 5450 µM (CMV strain AD169; Human betaherpesvirus 5, AD169, chemical inhibitors at maximum non-toxic concentration: actinonin 5.45 mM, bestatin 4.35 mM, 1,10-phenanthroline 0.45 mM, 2,2′-dipyridyl 3.74 mM) [%] | IC50 (CMV strain AD169; Human betaherpesvirus 5, HL734 cells, CMV AD169, read-out: 50% inhibitory dose for CMV infection) [µM] | inhibition at 4350 µM (CMV strain AD169; Human betaherpesvirus 5, AD169, read-out: Inhibition of CMV Infection) [%]
1 | c1cnc2c(c1)ccc1cccnc12 [1,10-phenanthroline] | − (− = no inhibition) | 250 | + (+ = >50 inhibition compared to mouse IgG control) | + (+ = >50 inhibition compared to mouse IgG control) |  |  |  | 
2 | c1ccc(-c2ccccn2)nc1 [2,2′-dipyridyl] | − (− = no inhibition) |  | + (+ = >50 inhibition compared to mouse IgG control) | + (+ = >50 inhibition compared to mouse IgG control) | 2800 |  |  | 
3 | CCCCC[C@H](CC(=O)NO)C(=O)N[C@H](C(=O)N1CCC[C@H]1CO)C(C)C [actinonin] | − (− = no inhibition) |  |  | + (+ = >50 inhibition compared to mouse IgG control) |  | > 50 | 3300 | 
4 | CC(C)C[C@H](NC(=O)[C@@H](O)[C@H](N)Cc1ccccc1)C(=O)O [bestatin] | − (− = no inhibition) | 2500 |  | + (+ = >50 inhibition compared to mouse IgG control) |  |  |  | > 50
